Patent publication US10786525B2, “Method for treating haemorrhage, shock and brain injury” (priority 2013, dated 2020)

What was measured:
[1] = oral and/or intravenous 10, 25, 50, and 100 mg/kg; cited from earlier work
[2] = tested on: isolated guinea-pig mesenteric artery; assay: Pressure myograph relaxation of AVP-constricted mesenteric artery (Example 4); conditions: for relaxation of intact artery: 0.001 to 1 mM, luminal or abluminal; for abluminal versus luminal relaxation: adenosine: at 10 μM and 100 μM
Protocol: Male guinea pigs (250-300 g) were anesthetised and placed in a cradle and the abdomen opened. Second order mesenteric artery branches were isolated and mounted in a pressure myograph (see FIG. 4) under constant pressure of 60 mmHg and perfusion (luminal flow) of 100 uL/min with Krebs-Henseleit buffer (37° C.). Artery diameter was continuously measured using videomicroscopy (see FIG. 4). For the relaxation/vasodilation experiments arteries were equilibrated and then constricted with 10^−8 M arginine vasopressin (AVP). Adenosine, lidocaine or adenosine-lidocaine together were administered 2) luminally and 2) abluminally and concentration curves were obtained. Stock solutions of adenosine and lidocaine alone or adenosine-lidocaine combined were made in deionized water to 20 mM. A range of volumes were pipetted to provide contact concentrations with the vessel lumen or outer wall that ranged from 0.001 to 1 mM. At the end of experiments, arteries were dilated using calcium-free solution to obtain 100% relaxation. A number of arteries were denuded by introducing 5 ml air into the lumen with flow rate 1000 μl/min. The air outflow was then clamped until the intraluminal pressure reached 70 mmHg, flow rate was reduced to 2 μl/min and the vessel remained pressurized for 10 minutes

SMILES | safety in humans [1] | relaxation with or without intact endothelium [2] | relaxation of intact artery [2] | abluminal versus luminal relaxation [2] | artery diameter in the presence of endothelium [2] | relaxation when endothelium was absent ([2]; denuded)
NC(=O)c1ncn([C@@H]2O[C@H](CO)[C@@H](O)[C@H]2O)c1N [Acadesine, 5-amino-4-imidazole carboxamide ribonucleoside] | safe in humans |  |  |  |  | 
Nc1ncnc2c1ncn2[C@@H]1O[C@H](CO)[C@@H](O)[C@H]1O [adenosine] |  | relaxed the mesenteric artery in a dose dependent manner | increased relaxation | significantly more relaxation |  | 
CCN(CC)CC(=O)Nc1c(C)cccc1C [lidocaine] |  |  | failed to produce relaxation | no significant difference | did not significantly change mesenteric artery diameter | relaxed the artery
